In patent publication US8642651B2, “Methods and compositions for improved chromium complexes” (VDF Futureceuticals, Inc., priority 2004, dated 2014):
Where “and” joins values, the source holds several entries; their conditions need not be identical. Identical values can stand only once.

Tests used:
L6 muscle cells = experiment: Total glucose uptake in L6 muscle cells (2-NBDG fluorescence); assay type: cell-based; details: 2 hrs treatment
Experimental: Total glucose uptake was measure using fluorescent analog of glucose, 2-NBDG (2-(N-(7-nitrobenz-2-oxa-1,3-diazol-4-yl)amino)-2-deoxyglucose) from Molecular Probes Inc. L6 myoblastic cells were treated for 2 hrs with tested compounds in culture medium SkBM from Clonetics. After washing, cells were transferred to HBSA (Hepes-buffered Saline), pH 7.0 with 50 mcM of 2-NBDG without glucose. One minute later, cells were washed with ice-cold PBS, and fixed in −20 C 70% ethanol. Fluorescence was measured at 480/530 (excitation/emission).

[1] = system: Streptozocin-induced insulin deficient rats; experiment: Fasted blood glucose in streptozocin-induced insulin deficient rats, chromium compounds in drinking water for four weeks; assay type: in vivo; details: for Fasted Blood Glucose (fold increase over four weeks): drinking water, about 42 μg/kg, four hrs fasting
Experimental: In vivo experiments gave much more dramatic differences, which are summarized in Table 1 below in which the increase in fasting blood glucose was measured after four weeks as compared to untreated animals: Streptozocin-induced insulin deficient rats were used to evaluate the insulin potentiating activity of several compounds. […] As consequence, these rats develop severe hyperglycemia. So far, certain known chromium compounds were known to potentiate action of insulin, however, the actual mechanism was not clearly understood. […] In our studies in vivo, chromium compounds were provided in drinking water for four weeks at a concentration of about 42 μg/kg. Vein blood was collected following four hrs fasting and used for fasted blood glucose level test. The study results for two tests are given below in Table 3 in which the increase in blood glucose in given as a fold increase over four weeks.

| Compound | Fold over Control, Average (L6 muscle cells; Conc. 10 nM) | Fold over Control, Average (L6 muscle cells; Conc. 100 nM) | Fold over Control, Average (L6 muscle cells; Conc. 1000 nM) | Fasted Blood Glucose (fold increase over four weeks) ([1]; STUDY 1) | other results |
| --- | --- | --- | --- | --- | --- |
| O.O.O.O.O.O.[Cl][Cr]([Cl])[Cl] [CrCl3, CrCl3 hexahydrate, reference compound] | 1.55 fold | 2.05 fold | 2.08 fold | 1.32 fold | – |
| CN(C)C(=N)N=C(N)N [Metformin, reference compound] | – | – | – | 0.96 fold | – |
| Chromium-mono-Aminooxyacetate [CROA-1] | 1.72 fold | 2.36 fold | 2.39 fold | – | Fold over Control (single values) (L6 muscle cells; Conc. 10 nM): 1.41 fold and 1.66 fold and 2.10 fold; Fold over Control (single values) (L6 muscle cells; Conc. 100 nM): 2.12 fold and 2.16 fold and 2.80 fold; Fold over Control (single values) (L6 muscle cells; Conc. 1000 nM): 2.58 fold and 2.10 fold and 2.50 fold |
| chromium niacin [CrNiacin, reference compound] | – | – | – | 1.91 fold | – |
| chromium picolinate [Cr-picolinate, reference compound] | – | – | – | 2.02 fold | Fasted Blood Glucose (fold increase over four weeks) ([1]; STUDY 2): 2.37 fold; BLOOD GLUCOSE INCREASE (% of untreated) ([1]; diabetic rats, after four weeks, untreated = 100%): 95.56%; BLOOD GLUCOSE INCREASE ([1]; diabetic rats, increase in fasting blood glucose after four weeks): 2.37 |
